According to patent US11786540B2, “Gliflozins and a method for their delivery during resuscitation from cardiac arrest to improve survival outcomes” (Rosalind Franklin University of Medicine and Science, priority 2020, dated 2023):

What was measured:
[1] = test system: open-chest swine model of VF; assay: open-chest swine model of electrically-induced VF and simulated CPR using extracorporeal circulation; format: in vivo
Experimental: The studies were conducted in an open-chest swine model of electrically-induced VF and simulated CPR with controlled coronary blood flow (CBF) using extracorporeal circulation (ECC).^13,14 With a high degree of precision, the ECC model allowed subjecting the myocardium to low-flow reperfusion (as CPR does) after a period of ischemia during untreated VF (as it typically occurs in patients). The model reproduces adverse myocardial effects observed during CPR including increased myocardial wall thickness that is consistently ameliorated by NHE-1 inhibition. In addition, the model also reproduces post-resuscitation myocardial dysfunction which is also ameliorated by NHE-1 inhibition. In addition, the open-chest model allows for direct assessment of the myocardium via a micro-tip pressure transducer in the left ventricle to measure left ventricular pressure with high fidelity; a flow probe around the left anterior descending coronary artery to measure coronary blood flow as a surrogate of total myocardial blood flow; ultrasonic piezoelectric crystals to continuously measure the diameter (short-axis) and wall thickness of the left ventricle at the level of the mitral valve; and echocardiography to measure left ventricle volumes and wall thickness through a 4-chamber and 2-chamber views of the heart.
Therefore, we chose an EMPA dose expected to achieve a blood concentration of 1 μM after initial blood volume distribution in our swine model of VF and resuscitation by ECC. For this purpose, a stock solution was first prepared by dissolving 90.2 mg of EMPA (Sigma, St. Louis, Mo., MW 450.92) in 10 ml of 100% DMSO to obtain a 20 mM solution. This stock solution was diluted in saline to 200 μM. Given an estimated blood volume of 2.5 L for a 40-kg pig, 2.5 μmoles (i.e., 12.5 ml of the 200 μM solution) were given in bolus dose to attain the target blood concentration of 1 μM EMPA after initial blood volume distribution. […] Control pigs received 12.5 ml of 0.9% NaCl.
The bolus of EMPA or control solution was given at minute 9 of untreated VF through the venous port of the extracorporeal circuit. VF was maintained untreated for 10 minutes. ECC was then initiated and maintained for an additional 16 minutes. The ECC flow was titrated with the aid of a closed-loop system to generate and maintain a CBF of 25% of the baseline CBF, measured in the left anterior descending coronary artery.^20
Six male domestic pigs (38.2 to 43.3 kg) were fasted overnight, sedated with ketamine hydrochloride (30 mg/kg intramuscular), and anesthetized with propofol (2 mg/kg through an ear vein). The trachea was intubated with a size-7.5 orotracheal tube and positive pressure ventilation initiated with 50% oxygen using a volume-controlled ventilator (840 Ventilator System, Nellcor Puritan Bennett, Boulder, Colo.) set to deliver 10 mL/kg at a peak flow of 60 L/min with an FiO2 of 0.5. The respiratory rate was adjusted to attain an end-tidal PCO2 (PETCO2) between 38 and 42 mmHg. Anesthesia was maintained using isoflurane (1.75%-2.75%). Rectal temperature was maintained between 37.5 and 38.5° C. with a servo-controlled water-circulated blanket (Blanketrol II, Cincinnati Sub-Zero, Cincinnati, Ohio). The ECG signal was obtained during spontaneous circulation through leads placed on the right forelimb, left forelimb, and left hindlimb. During VF, the ECG signal was obtained through pads from a biphasic waveform defibrillator (E series; ZOLL Medical Corporation, Chelmsford, Mass.) placed on the shaved sides of the chest along the midaxillary line.
A 7 F fluid-filled catheter was advanced from the right femoral artery into the descending thoracic aorta to measure aortic pressure. A 7 F thermodilution balloon-tipped catheter was advanced through the right external jugular vein into the pulmonary artery to measure cardiac output, right atrial pressure, pulmonary artery pressure, and pulmonary artery occlusive pressure (Swan-Ganz, Edwards Lifesciences, Irvine, Calif.). […]

[2] = test system: patients with type 2 diabetes; conditions: cited from earlier work
isolated cardiomyocytes = conditions: cited from earlier work
[3] = test system: closed-chest swine model of VF; format: in vivo
Experimental: We used a swine model of VF and conventional closed-chest resuscitation with survival up to 240 minutes. We conducted 16 experiments in which 8 were randomized to receive EMPA and 8 to vehicle control given intravenously immediately before starting CPR.
Domestic pigs (35.2 to 39.6 kg) were sedated, anesthetized, intubated, and started on mechanical ventilation as for the experiments in the open-chest model. For blood sampling and measuring aortic pressures, a 6F dual lumen pressure monitoring catheter (Langston, Vascular Solutions) was advanced through the right femoral artery past the bifurcation and into the descending thoracic aorta. For measuring left ventricular pressures, a 7F fluid-filled pigtail catheter (Langston, Vascular Solutions) was advanced through the surgically exposed right carotid artery and into the left ventricle. For blood sampling and for measuring core temperature, cardiac output by thermodilution technique, and pressures in the right atrium and pulmonary artery, a balloon-tipped pulmonary artery catheter (Swan-Ganz, Edwards Lifesciences, Irvine, Calif.) was advanced through the right external jugular vein and into the pulmonary artery. For induction of VF, a 5F pacing electrode was advanced through the right internal jugular vein into the right ventricle (FIG. 4).
VF was induced by delivering an alternating current (1-10 mA) to the right ventricular endocardium and left untreated without ventilation for 10 minutes. At the end of untreated VF, chest compressions were started using a mechanical compressor (Michigan Thumper Model 1007, Grand Rapids, Mich.) set to compress the chest at a rate of 100 per minute with its depth titrated attempting to generate an aortic diastolic pressure of at least 25 mmHg but without exceeding a maximum compression depth of 5 cm. Ventilation with 100% oxygen was delivered using a 350-ml self-inflating pediatric bag (Lifesaver Resuscitation Bags; Teleflex Medical, N.C.). Compressions and ventilations were delivered sequentially as recommended when the airway is un-protected. Accordingly, 30 chest compressions were delivered in 18 seconds followed by 2 breaths during a 6 second compression pause. Electrical shocks were delivered through the chest pads using a biphasic waveform defibrillator (R series Zoll Corp.) with the energy set at 200-J. Shocks were delivered guided by the likelihood of successful resuscitation using an algorithm developed by us based on real-time monitoring of the VF waveform in the frequency domain known as amplitude spectral area (AMSA).^24 Epinephrine (1 mg-bolus dose; 1 ml) was delivered through the pulmonary artery catheter into the right atrium and the line flushed with 10 ml of 0.9% NaCl. The timing of epinephrine delivery was based on an AMSA advisory criterion avoiding delivery if AMSA predicted a high likelihood of shock success within the ensuing 120 seconds, with a minimum interval between doses of 240 seconds. The purpose of AMSA advisory criteria was to minimize administration of epinephrine—given its known adverse post-resuscitation effects—if not required for successful resuscitation.^25,26 Animals that achieved ROSC received 0.9% NaCl (30 ml/kg) at the maximum pump rate (999 ml/h) and were monitored for up to 240 minutes, euthanizing those that survived by delivering a right atrial bolus of KCl (150 mg/kg).
For these experiments we used a higher EMPA dose corresponding to 0.5 mg/kg.
For this purpose, a stock solution was prepared by dissolving 90.2 mg of EMPA (Sigma, St. Louis, Mo., MW 450.92) in 8 ml of 100% DMSO to obtain a […] solution. This stock solution was diluted in saline to 5 mM. Given an estimated blood volume of 2.5 L for a 40-kg pig, 44.64 μmoles (i.e., 8.9 ml of the 5 mM solution) of EMPA was given in bolus dose into the right atrium immediately before starting CPR to attain the target blood concentration of 17.8 μM (0.8026 mg/di) after initial blood volume distribution. […]

[4] = dose 0.5 mg/kg; cited from earlier work
CaMKII = conditions: 24 hours exposure; cited from earlier work
[5] = test system: obese rats with diastolic dysfunction; conditions: cited from earlier work
[6] = 25 mg oral dose in humans; cited from earlier work
isolated mice hearts = conditions: cited from earlier work
ischemia-reperfusion = conditions: rat and swine models of ischemia-reperfusion; cited from earlier work
[7] = test system: coronary occlusion and reperfusion; conditions: oral, 24 hours and 2 hours before coronary occlusion; cited from earlier work
[8] = test system: coronary occlusion and reperfusion; conditions: rat, in vivo; cited from earlier work
[9] = test system: swine model of cardiac arrest; conditions: given immediately before starting CPR; cited from earlier work
[10] = vs control, statistically significant

OC[C@H]1O[C@@H](c2ccc(Cl)c(Cc3ccc(O[C@H]4CCOC4)cc3)c2)[C@H](O)[C@@H](O)[C@@H]1O [EMPA, Empagliflozin]
myocardial changes during the resuscitation effort ([1]; between EMPA and control groups): no myocardial differences | increases in Tau, the relaxation time constant, post-resuscitation ([1]; developed in control animals): not observed | progressive left ventricular wall thickening post-resuscitation ([1]; developed in control animals): not observed | cumulative energy required to terminate VF ([1]; same in both groups): 60 J | NE doses received post-resuscitation ([1]; vs control): lower | PETCO2 post-resuscitation ([1]; vs control): markedly higher | heart rate post-resuscitation ([1]; vs control, n=3 per group, not statistically significant): lower | MAP post-resuscitation ([1]; vs control, n=3 per group, statistically significant): statistically significant higher | coronary vascular resistance post-resuscitation ([1]; vs control, did not achieve statistical significance): slightly lower | LAD blood flow post-resuscitation [1, 10]: substantially higher | cardiac index post-resuscitation [1, 10]: markedly higher | left ventricular stroke work index post-resuscitation [1, 10]: higher | stroke volume index post-resuscitation [1, 10]: higher | reduction in the relative risk of cardiovascular death [2]: 38% | risk reduction of hospitalization for heart failure [2]: 35% | cytosolic sodium and cytosolic calcium (isolated cardiomyocytes): reductions | end-tidal PCO2 during CPR ([3]; 0.5 mg/kg, n=8, comparator 29±7): 36±7 mmHg | left ventricular stroke work index post-resuscitation ([3]; vs comparator): higher | mean arterial pressure post-resuscitation ([3]; vs comparator): lower | stroke volume index post-resuscitation ([3]; vs comparator): higher | systemic vascular resistance post-resuscitation ([3]; vs comparator): lower | cardiac index post-resuscitation ([3]; vs comparator, average of 120, 180, 240 min): higher | pulmonary vascular resistance post-resuscitation ([3]; vs comparator, not shown): lower | adverse effect [4]: had not shown adverse effect | CaMKII activity (CaMKII): reduction | isovolumic relaxation time ([5]; after 30 minutes): improved | blood concentration ([5]; single EMPA injection, obese rats): 8.68 µM | blood concentration [6]: 0.69 µM | onset of myocardial contracture during ischemia (isolated mice hearts; EMPA 1 μM, 18 minutes prior to ischemia and 25 minutes of ischemia): delayed | infarct size (isolated mice hearts; global ischemia and reperfusion): reduced

Cc1ccc([C@@H]2O[C@H](CO)[C@@H](O)[C@H](O)[C@H]2O)cc1Cc1ccc(-c2ccc(F)cc2)s1 [canagliflozin]
reductions in infarct size (ischemia-reperfusion): up to 60% | stroke volume and cardiac output after reperfusion [7]: better | infarct size [8]: reduced | systolic and diastolic dysfunction [8]: ameliorated

CC(C)c1ccc(C(=O)NC(=N)N)cc1S(C)(=O)=O [cariporide]
myocardial wall thickening and reduction in left ventricular cavity size [9]: significant amelioration
